Measurements taken from patent US4218477A, “Primary aminoacylanilides, methods of making the same and use as antiarrhythmic drugs” (priority 1976, dated 1980).
Where two headings read alike, the source gives them in different places.

Experiments:
[1] = system: chloroform induced fibrillation; test: Protection against chloroform induced fibrillation in mice, subcutaneous, potency relative to lidocaine (Table IV); type: in vivo; conditions: s.c., 20 min, statistical mean (confidence limits)
Method: (§1) The experiments on mice were performed according to a modification of the method described by J. W. Lawson, "Antiarrhythmic activity of some isoquinoline derivatives determined by a rapid screening procedure in the mouse", J. Pharm. Exp. Therap. Vol. 160, pp. 22-31 (1968). This method is based upon the observation that when an unanesthetized, untreated mouse is exposed to chloroform vapor its respiration soon ceases and at that time both electrocardiographic and visual inspection reveal that the cardiac ventricles are fibrillating. If the mouse is treated appropriately with known antiarrhythmic agents prior to exposure to chloroform, the respiratory failure is not accompanied by ventricular fibrillation.
The procedure used was a modification of the method previously described. The modification involved using a standard time of 20 minutes for each test run and four different doses of the same drug. Route of administration was subcutaneous.

[2] = Acute oral toxicity in mice (24 Hr. mortality); conditions: mouse, in vivo, po
cardiac arrhythmias = conditions: in vivo; cited from earlier work
ventricular fibrillation [3] = test: Protection against chloroform induced ventricular fibrillation in mice, oral (Table I); type: in vivo, female Swiss albino mice (HAM/ICR)
Method: as §1

mice [4] = test: Ataxia just before CHCl3 challenge in mice, oral (Table I); type: in vivo, female Swiss albino mice (HAM/ICR)
Method: as §1

mice [5] = conditions: mouse, in vivo, po, 1440 min
pKa = type: physicochemical; conditions: 23; read-out: pkaa^23
mice [6] = test: Acute oral toxicity in mice (24 Hr. mortality); conditions: oral, mice, 24 hr; dose to kill one of a thousand
ventricular fibrillation [7] = test: Protection against chloroform induced fibrillation in the guinea pig, intraperitoneal (Table V); type: in vivo; conditions: 326 mg/kg i.p., 20 min before chloroform
Method: Guinea pigs (250-350 g) were placed individually into a series of 4000 ml beakers containing cotton and 100 ml of chloroform. After cessation of respiration the animal was removed from the beaker, the thorax was opened and the heart was examined for the presence or absence of ventricular fibrillation. The nature of the cardiac rhythm was confirmed by electrocardiographic recordings.
A single dose (about 1-5 ml) of each test compound was administered intraperitoneally by a 25 gauge needle twenty minutes before the animals were placed in chloroform.

ventricular arrhythmias [8] = type: in vivo, dogs
Method: Vol. 1, pp. 1318-1328 (1950). […] The electrocardiographic, cardiovascular and other drug effects were monitored.
Table II summarizes the results of oral administration:
Dogs #215 and #220 given 50 mg/kg dose at 0 mins and 100 mg/kg dose at 24
The electrocardiographic, cardiovascular and other drug effects were monitored.

ventricular arrhythmias [9] = test: animal or person
Method: Tests on dogs with the compound 2-amino-2',6'-propionoxylidide were conducted according to a modification of the method described by A. S. Harris in "Delayed Development of Ventricular Ectopic Rhythms Following Experimental Coronary Occlusions", Circ. Vol. 1, pp. 1318-1328 (1950). In this method the dogs were anesthetized, the heart was exposed, and the anterior descending branch of the left coronary artery was ligated in two stages. The thorax was closed and the dog was allowed to recover from the anesthesia. […] B. B. Clark and J. R. Cummings, "Arrhythmias Following Experimental Coronary Occlusion and Their Response to Drugs", Annals New York Academy of Sciences, Vol. 65, pp. 543-551 (1956). […] The electrocardiographic, cardiovascular and other drug effects were monitored.
The dosage schedule was: 1st hr.: 15 mg/kg/hr; 2nd hr.: 30 mg/kg/hr; 3rd hr.: 60 mg/kg/hr. Infusions were stopped at the first sign of toxicity other than emesis.
The compound 3-amino-2',6'-butyroxylidide was also tested on dogs, according to a modification of the method of Harris as previously described. As in the previously described tests, unanesthetized dogs were supported in canvas slings and were treated either intravenously or orally with doses of 3-amino-2',6'-butyroxylidide. The electrocardiographic, cardiovascular and other drug effects were monitored.

[10] = system: chloroform-induced arrhythmias; test: animal or person; conditions: Mus musculus
[11] = system: chloroform-induced arrhythmias; conditions: mouse, in vivo
[12] = cited from earlier work
frog sciatic nerve = test: Local anesthetic effect in vitro on the frog sciatic nerve; conditions: 5 min; 20 mM, after 5 minutes; read-out: block of the action potential of the nerve
[13] = dose LD0.1, drug given 10 min before CHCl3 challenge
[14] = dose LD0.1, drug given 20 min before CHCl3 challenge
[15] = dose LD0.1, drug given 40 min before CHCl3 challenge
[16] = dose LD0.1, drug given 80 min before CHCl3 challenge

Cc1cccc(C)c1NC(=O)[C@H](C)N [(+)-2-amino-2',6'-propionoxylidide]
Relative Potency (ED50 test compound/ED50 lidocaine) [1]: 0.11 (0.06 - 0.21)

CCN(CC)CCNC(=O)c1ccc(N)cc1 [Procainamide]
LD50 at 24 h [2]: 643 mg/kg
side effects (cardiac arrhythmias): exhibit undesirable side effects
Proportion of mice protected against fibrillation at LD0.1 (ventricular fibrillation [3]; dose LD0.1, drug given 5 min before CHCl3 challenge): 0/10
Proportion of mice protected against fibrillation at LD0.1 (ventricular fibrillation [3]; [13]): 1/10
Proportion of mice protected against fibrillation at LD0.1 (ventricular fibrillation [3]; [14]): 0/10
Proportion of mice having ataxia just before CHCl3 challenge (mice [4]; dose LD0.1, 5 min): 0/10
Proportion of mice having ataxia just before CHCl3 challenge (mice [4]; dose LD0.1, 10 min): 0/10
Proportion of mice having ataxia just before CHCl3 challenge (mice [4]; dose LD0.1, 20 min): 0/10
24 Hr. Mortality LD0.1 (mice [5]): 248 mg/kg

Cc1cc(C)c(NC(=O)CCN)c(C)c1 [3-amino-2', 4', 6'-propionomesidide, 3-amino-2',4',6'-propionomesidide]
pKa (pKa): 8.7 to 8.8

CCc1cccc(C)c1NC(=O)CCN [3-amino-2'-ethyl-6'-methylpropionanilide]
Relative Potency (ED50 test compound/ED50 lidocaine) [1]: 0.29 (0.09 - 0.81)

C=C[C@H]1C[N@@]2CC[C@H]1C[C@@H]2[C@@H](O)c1ccnc2ccc(OC)cc12 [Quinidine]
24 Hr. Mortality LD0.1 (mice [6]): 348 mg/kg
LD50 at 24 h [2]: 382 mg/kg
side effects (cardiac arrhythmias): exhibit undesirable side effects
Proportion of mice protected against fibrillation at LD0.1 (ventricular fibrillation [3]; [14]): 10/10
Proportion of mice protected against fibrillation at LD0.1 (ventricular fibrillation [3]; [15]): 9/9
Proportion of mice protected against fibrillation at LD0.1 (ventricular fibrillation [3]; [16]): 9/9
Proportion of mice having ataxia just before CHCl3 challenge (mice [4]; dose LD0.1, 20 min): 0/10
Proportion of mice having ataxia just before CHCl3 challenge (mice [4]; dose LD0.1, 40 min): 2/10
death (mice [4]; dose LD0.1, 40 min group): 1 death
death (mice [4]; dose LD0.1, 80 min group): 1 death

O=C1NC(=O)C(c2ccccc2)(c2ccccc2)N1 [diphenylhydantoin]
side effects (cardiac arrhythmias): exhibit undesirable side effects

Cc1cccc(C)c1NC(=O)CC(C)N (centres unmarked) [3-amino-2',6'-butyroxylidide]
Percent of Population Protected (ventricular fibrillation [7]): 100%
Relative Potency (ED50 test compound/ED50 lidocaine) [1]: 0.99 (0.60 - 1.9)
adverse reactions (ventricular arrhythmias [8]; dog, in vivo, po): unaccompanied by any discernible adverse reactions
suppression of the ventricular arrhythmias (ventricular arrhythmias [8]; oral doses, dogs): distinct suppression of the ventricular arrhythmias
adverse reactions (ventricular arrhythmias [9]; dog, in vivo, iv): unaccompanied by any discernible adverse reactions
suppression of the ventricular arrhythmias (ventricular arrhythmias [9]; intravenous doses, dogs): distinct suppression of the ventricular arrhythmias
toxic side-effects (ventricular arrhythmias [9]; intravenous, antiarrhythmic doses, dogs (Table VI)): minimal toxic side-effects
Toxicity: Convulsions (ventricular arrhythmias [9]; intravenous, individual dogs): None
Toxicity: Deaths (ventricular arrhythmias [9]; intravenous, individual dogs): None

Cc1cccc(C)c1NC(=O)[C@@H](C)N [2-amino-2',6'-propionoxylidide]
Relative Potency (ED50 test compound/ED50 lidocaine) [1]: 0.45 (0.26 - 0.78)

CCc1cccc(CC)c1NC(=O)C(C)N (centres unmarked) [2-amino-2', 6'-diethylpropionanilide, 2-amino-2',6'-diethylpropionanilide]
Relative Potency (ED50 test compound/ED50 lidocaine) [1]: 0.48 (0.27 -0.73)

CCc1cccc(CC)c1NC(=O)CN [2-amino-2', 6'-diethylacetanilide, 2-amino-2',6'-diethylacetanilide]
Relative Potency (ED50 test compound/ED50 lidocaine) [1]: 0.22 (0.13 - 0.36)

CCNC(C)C(=O)Nc1c(C)cc(C)cc1C (centres unmarked)
ED50 [10]: 162 mg/kg
incidence of ataxia [11]: 100%
incidence of convulsions [11]: 90%

Cc1cccc(C)c1NC(=O)CCN [3-amino-2', 6'-propionoxylidide, 3-amino-2',6'-propionoxylidide]
Relative Potency (ED50 test compound/ED50 lidocaine) [1]: 0.4 (0.2 - 0.8)

CC(C)NCC(O)COc1cccc2ccccc12 (centres unmarked) [propranolol]
side effects (cardiac arrhythmias): exhibit undesirable side effects

CCc1cccc(C)c1NC(=O)CN [2-amino-2'-ethyl-6'-methyl acetanilide, 2-amino-2'-ethyl-6'-methylacetanilide]
Relative Potency (ED50 test compound/ED50 lidocaine) [1]: 0.27 (0.14 - 0.40)

CCN(CC)CC(=O)Nc1c(C)cccc1C [Lidocaine, 2-diethylamino-2',6'-acetoxylidide]
24 Hr. Mortality LD0.1 (mice [6]): 154 mg/kg
Proportion of mice protected against fibrillation at LD0.1 (ventricular fibrillation [3]; [13]): 9/10
Proportion of mice protected against fibrillation at LD0.1 (ventricular fibrillation [3]; [14]): 10/10
Proportion of mice protected against fibrillation at LD0.1 (ventricular fibrillation [3]; [15]): 7/10
Proportion of mice protected against fibrillation at LD0.1 (ventricular fibrillation [3]; [16]): 0/10
Number of dogs showing antiarrhythmic effect (ventricular arrhythmias [9]; i.v. infusion 15, 30, 60 mg/kg/hr, dogs tested: lidocaine 2, test compound 1, abnormal beats less than 5% of total): 2
duration of blood levels ([12]; in vivo): fairly short
levels of the drug in the blood ([12]; oral): low levels of the drug in the blood
oral effectiveness ([12]; oral): not orally effective
loss of the drug after oral administration ([12]; oral, probably due to functions of the liver): pronounced loss of the drug
Proportion of mice having ataxia just before CHCl3 challenge (mice [4]; dose LD0.1, 10 min): 0/10
Proportion of mice having ataxia just before CHCl3 challenge (mice [4]; dose LD0.1, 20 min): 9/10
Proportion of mice having ataxia just before CHCl3 challenge (mice [4]; dose LD0.1, 40 min): 0/10
Proportion of mice having ataxia just before CHCl3 challenge (mice [4]; dose LD0.1, 80 min): 0/10
inhibition at 20000 µM (frog sciatic nerve): 78%
